Key:
[1] = tested on: Zluc cells (Huh-7-derived cell line); assay: Cytotoxicity evaluation, CellTiter-Blue Cell Viability Assay; format: cell-based; conditions: read-out: HCV Replicon CC50
Protocol: (§1) For cytotoxicity evaluation, Zluc cells were treated with compound as described above, and cell viability was monitored using the CellTiter-Blue Cell Viability Assay (Promega) by adding 20 μL of the assay solution to each well. The plates were then incubated at 37° C./5% CO2 for at least 3 hours.

[2] = Stability in simulated gastric fluid (SGF); format: in vitro ADME; conditions: 100 μM, 2 hours at 37° C.
Protocol: (§2) Simulated gastric and intestinal fluids containing pepsin and pancreatin respectively were prepared according to the U.S. Pharmacopoeia USP291 procedure (www.pharmacopeia.cn/v29240/usp29nf24s0_ris1s126.html). Test compound (final concentration 100 μM) was incubated in duplicate in the appropriate fluid for 2 hours at 37° C. The samples were quenched with 200 μl cold acetonitrile, vortexed for 30 seconds and then centrifuged at 16,100 g for 10 min. The supernatants were analyzed by HPLC on a C-18 column with UV detection at 252 nm. The time 0 samples were prepared by adding SGF or SIF fluid to the quenching solvent followed by the test compound. Stability of the compound was determined by peak area the test compound after incubation and calculated as percent of the peak area observed at time zero.

[3] = Stability in simulated intestinal fluid (SIF); format: in vitro ADME; conditions: 100 μM, 2 hours at 37° C.
Protocol: as §2

[4] = Stability in human intestinal microsomes (HIM); format: in vitro ADME; conditions: 10 μM, 1.0 mg/mL protein, NADPH, 60 min
Protocol: (§3) Stability of Compound 1 and its diastereomer were determined in subcellular fractions (microsomes and S9) of human liver and intestine in duplicate for each matrix. Pooled liver and intestinal microsomal, intestinal and liver S9 proteins (1.0 mg/mL), suspended in incubation buffer (100 mM potassium phosphate, pH 7.4, 5 mM MgCl2, and 0.1 mM EDTA), were preincubated for 5 min at 37° C. with 10 μM of a test compound from a 10 mM stock solution in DMSO (final DMSO concentration was 0.1%); the reaction was initiated by the addition of NADPH (3 mM final concentration). At specific times (0 and 60 min), 0.1 mL samples were taken and the reaction terminated by the addition of 4 volumes of stop solution (acetonitrile with 500 ng/mL carbutamide as an internal standard). The samples were vortexed for 30 sec and then centrifuged at 16,000 g for 10 min. 100 μL of supernatants were transferred to 96 deep-well plates preloaded with 100 μL distilled water and analyzed after mixing by LC-MS/MS. The MS peak area ratio of the test compound versus the internal standard was calculated and percent unchanged test compound over 60 minutes was calculated using this ratio.

[5] = Stability in human liver S9 fraction (HLS9); format: in vitro ADME; conditions: 10 μM, 1.0 mg/mL protein, NADPH, 60 min
Protocol: as §3

fresh human hepatocytes = assay: Release of active metabolite in fresh human hepatocytes; format: in vitro ADME; conditions: intracellular triphosphate, 10 μM test compound
Protocol: (§4) Plates of fresh human and mouse hepatocytes were obtained on ice. The medium was removed and replaced with hepatocyte culture medium (William's E supplemented with penicillin-streptomycin, 1% L-glutamine, 1% insulin-transferrin-selenium and 0.1 μM Dexamethasone (Invitrogen) or with Invitro GRO HI medium complemented with Torpedo antibiotics (Celsis)). Cells were left overnight in an incubator at 37° C. to acclimatize to culture and the medium.
(§5) Hepatocyte incubations were conducted at a final volume of 0.5 mL hepatocyte culture medium/well (0.8 million cells/well for human and 0.5 million cells/well for mouse; 12 well plate no overlay, collagen coat). Culture medium from overnight incubation of cells was removed and replaced with fresh medium, pre-warmed to 37° C., containing 10 μM of the test compound from a stock solution in DMSO (final DMSO concentration was 0.1%). At each specific time point, incubation medium was removed and cell monolayers were carefully washed two times with ice-cold PBS. Following the last wash, all PBS was carefully removed and 1.0 mL of extraction solution (ice-cold 70% methanol/30% water) added. Cells were scraped off and suspended in the extraction solution, transferred to 2 mL polypropylene microfuge tubes and intracellular contents extracted overnight at −20° C.
(§6) After the overnight treatment the cellular extracts were prepared by centrifugation at 16,000×g for 10 min to remove cellular debris. The remaining sample was then dried using a refrigerated centrivap concentrator. Dry extracts were reconstituted in 1000 μL of HPLC-grade water and centrifuged at 16,000×g for 10 min. Aliquots (100 μL each) of the supernatant were transferred into a 96 well plate and 2′-C-methyl-adenosine 5′-triphosphate, trisodium salt (4 ng/mL final concentration) was added as the internal standard (1S) for LC-MS/MS analysis.
(§7) The incubation time points were 6, 24 and 48 hours for human hepatocytes and 1, 4, 8, 12 and 24 hours for mouse hepatocytes.

mouse hepatocytes = assay: Release of active metabolite in mouse hepatocytes; format: in vitro ADME; conditions: 10 μM test compound
Protocol: as §4, §5, §6, §7

[6] = Cytotoxicity evaluation, CellTiter-Blue Cell Viability Assay; format: cell-based; conditions: human, Zluc cells (Huh-7-derived cell line), read-out: HCV Replicon CC50
Protocol: as §1

SMILES | CC50 [1] [µM] | Percent Remaining, SGF [2] [%] | Percent Remaining, SIF [3] [%] | Percent Remaining, HIM (1 hr) [4] [%] | Percent Remaining, HLS9 (1 hr) [5] [%] | FHH TP AUC (fresh human hepatocytes) [pmol.hr/mill cells] | FHH TP Cmax (fresh human hepatocytes) [pmol/mill cells] | MsH AUC (mouse hepatocytes) [pmol.hr/mill cells] | MsH Cmax (mouse hepatocytes) [pmol/mill cells] | CC50 [6] [µM]
CCOC(=O)OC(C)OP(=O)(N[C@@H](C)C(=O)OC(C)C)OC[C@H]1O[C@@H](n2cnc3c(OC)nc(N)nc32)[C@](C)(F)[C@@H]1O (single isomer, unassigned) [Compound 15] | > 50 | 97 | 0 | 54 | 0 | 4453 | 139 | 218 | 216 | –
CCOC(=O)OC(C)OP(=O)(N[C@@H](C)C(=O)OC(C)C)OC[C@H]1O[C@@H](n2cnc3c(OC)nc(N)nc32)[C@](C)(F)[C@@H]1O (single isomer, unassigned) [Compound 14] | – | 91 | 39 | 41 | 0.7 | 4006 | 155 | 8704 | 7534 | > 50
